Assay results taken from patent US5668150A, “Non-symmetrical bis-heteroarylmethoxyphenylalkyl carboxylates as inhibitors of leukotriene biosynthesis” (Abbott Laboratories, priority 1996, dated 1997).
Where a name gives a salt, the structure may show the parent alone. Read-outs that look alike come from different tables or passages of the source.

Tested on: 5-Lipoxygenase
Experiment: Inhibition of leukotriene biosynthesis in vitro: calcium ionophore-induced LTB4 formation in human polymorphonuclear leukocytes (PMNL)
Format: cell-based
Conditions: calcium ionophore 8.3 μM, 15 min preincubation, 37 °C; for IC50: read-out: IC50, In Vitro Inhibitory Potencies Against 5-Lipoxygenase from Stimulated LTB4 Formation in Human Polymorphonuclear Leukocytes; for % I, In Vitro Inhibitory Potencies Against 5-Lipoxygenase from Stimulated LTB4 Formation in Human Polymorphonuclear Leukocytes: @ 0.10 μM
Protocol: Inhibition of leukotriene biosynthesis was evaluated in vitro using an assay involving calcium ionophore-induced LTB4 expressed in human (PMNL). Human PMNL isolated from heparinized (20 USP units/mL) venous blood (25 mL) obtained from healthy volunteers was layered over an equal volume of Ficoll-Hypaque Mono-Poly Resolving Medium (ICN Flow, Costa Mesa, Calif.) and centrifuged at 400×g for 40 min at 20° C. The PMNL was collected, erythrocytes lysed and washed 2× and suspended at 1.0×10^7 cells/mL in Earle's balanced salt solution with 17 mM Earle's HEPES. Aliquots of the cell suspension were preincubated with test compounds dissolved in DMSO (final concentration <2%) for 15 min. and stimulated with calcium ionophore (final concentration 8.3 μM) for 10 min. at 37 ° C. Incubations were stopped with the addition of two volumes of ice-cold methanol followed by centrifuging the cell suspensions at 4° C. for 10 rain at 450×g. The mount of LTB4 in the methanol extract was analyzed by enzyme-linked immunoassay or by HPLC analysis.

Compound	IC50 (sodium salt)	% I, In Vitro Inhibitory Potencies Against 5-Lipoxygenase from Stimulated LTB4 Formation in Human Polymorphonuclear Leukocytes	further results
Cn1c(COc2ccc(C(C)(CCC(=O)O)c3ccc(OCc4ccc5ccccc5n4)cc3)cc2)nc2ccccc21 (centres unmarked) [Example 5, 4-(4-(2-(1-methyl)benzimidazolylmethoxy)phenyl)-4-(4-(2-quinolylmethoxy)phenyl)pentanoic acid sodium salt]	80 nM	–	–
CC(CCC(=O)O)(c1ccc(OCc2ccc3ccccc3c2)cc1)c1ccc(OCc2ccc3ccccc3n2)cc1 (centres unmarked) [Example 3, 4-(4-(2-naphthylmethoxy)phenyl)-4-(4-(2-quinolylmethoxy)phenyl)pentanoic acid]	–	93%	–
Cn1c(COc2ccc(C(C)(CCC(=O)O)c3ccc(OCc4ccc5ccccc5n4)cc3)cc2)nc2ccccc21 (centres unmarked) [Example 6, 4-(4-(2-(1-methyl)benzimidazolylmethoxy)phenyl)-4-(4-(2-quinolylmethoxy)phenyl)pentanoic acid sodium salt]	90 nM	–	–
CC(CCC(=O)O)(c1ccc(OCc2ccc3ccccc3n2)cc1)c1ccc(OCc2nc3ccccc3s2)cc1 (centres unmarked) [Example 2, 4-(4-(2-benzothiazolylmethoxy)phenyl)-4-(4-(2-quinolylmethoxy)phenyl)pentanoic acid sodium salt]	–	–	IC50: 52 nM
CC(CCC(=O)O)(c1ccc(OCc2ccc3ccccc3n2)cc1)c1ccc(OCc2nc3ccccc3s2)cc1 (centres unmarked) [Example 1, 4-(4-(2-benzothiazolylmethoxy)phenyl)-4-(4-(2-quinolylmethoxy)phenyl)pentanoic acid]	–	95%	–
